Laboratory results as given in ChEMBL document CHEMBL4325848, “Quinoline and quinolone dimers and their biological activities: An overview” (Eur J Med Chem, 2019).
≈ marks a conversion by molar mass, not a printed value. Each block holds one compound with its values, some of them ahead of it.

Key:
[1] = biological target: Histone-lysine N-methyltransferase, H3 lysine-79 specific (Homo sapiens, UniProt Q8TEK3); experiment: Inhibition of DOT1L (unknown origin)
Kasumi 1 = experiment: Antiproliferative activity against human Kasumi-1 cells; format: functional, cell-based
MV4-11 = experiment: Antiproliferative activity against human MV4-11 cells; format: functional, cell-based
Staphylococcus aureus [2] = experiment: Antibacterial activity against glycopeptide-intermediate Staphylococcus aureus; format: functional
Staphylococcus aureus [3] = experiment: Antibacterial activity against Staphylococcus aureus 1199-3; format: functional
Staphylococcus aureus [4] = experiment: Antibacterial activity against Staphylococcus aureus 1199B; format: functional
Staphylococcus aureus [5] = experiment: Antibacterial activity against Staphylococcus aureus 1199; format: functional
Plasmodium falciparum [6] = experiment: Antiprotozoal activity against chloroquine-resistant Plasmodium falciparum W2; format: functional, organism-based
Plasmodium falciparum [7] = experiment: Antiprotozoal activity against chloroquine-sensitive Plasmodium falciparum D6; format: functional, organism-based
Plasmodium falciparum [8] = experiment: Antimalarial activity against pfmdr1-overexpressing chloroquine-resistant Plasmodium falciparum K1mef; format: functional, organism-based; details: K1 mef
Plasmodium falciparum [9] = experiment: Antimalarial activity against chloroquine-resistant Plasmodium falciparum K1; format: functional, organism-based
Plasmodium falciparum [10] = experiment: Antimalarial activity against chloroquine-sensitive Plasmodium falciparum D10; format: functional, organism-based
Plasmodium falciparum [11] = experiment: Antimalarial activity against chloroquine-sensitive Plasmodium falciparum 3D7; format: functional, organism-based
HL-60 = experiment: Antiproliferative activity against human HL60 cells; format: functional, cell-based
Enterococcus = experiment: Antibacterial activity against Enterococcus; format: functional
Escherichia coli [12] = experiment: Antibacterial activity against Escherichia coli; format: functional
Proteus = experiment: Antibacterial activity against Proteus; format: functional
Staphylococcus aureus [13] = experiment: Antibacterial activity against Staphylococcus aureus; format: functional
Shigella = experiment: Antibacterial activity against Shigella; format: functional
Klebsiella pneumoniae = experiment: Antibacterial activity against Klebsiella pneumoniae; format: functional
MDA-MB-468 = experiment: Antiproliferative activity against human MDA-MB-468 cells; format: functional
MCF7 = experiment: Antiproliferative activity against human MCF7 cells; format: functional
Plasmodium vinckei = experiment: Antimalarial activity against Plasmodium vinckei infected in ip dosed mouse; format: functional
Plasmodium berghei = experiment: Antimalarial activity against Plasmodium berghei N/13 infected in MF1 mouse; format: functional; details: read-out: ID50 (the source's name)
Plasmodium falciparum [14] = experiment: Potency index, ratio of chloroquine IC50 to compound IC50 for antimalarial activity against chloroquine-resistant Plasmodium falciparum K1; format: functional
Escherichia coli [15] = experiment: Antibacterial activity against Escherichia coli ATCC 8739 assessed as zone of inhibition at 50 ug/disc; format: functional; details: read-out: DIZ
Staphylococcus aureus [16] = experiment: Antibacterial activity against Staphylococcus aureus ATCC 6538 assessed as zone of inhibition at 100 ug/disc; format: functional; details: read-out: DIZ
Plasmodium falciparum [17] = experiment: Antimalarial activity against chloroquine-resistant Plasmodium falciparum FcB1; format: functional, organism-based; details: FcB1/Columbia
[18] = Cytotoxicity against human MRC5 cells; format: cell-based
[19] = Selectivity index, ratio of CC50 for human MRC5 cells to IC50 for chloroquine-resistant Plasmodium falciparum FcB1; format: toxicity; details: read-out: Ratio CC50/IC50

Histone-lysine N-methyltransferase, H3 lysine-79 specific, sequence (Q8TEK3 whole entry): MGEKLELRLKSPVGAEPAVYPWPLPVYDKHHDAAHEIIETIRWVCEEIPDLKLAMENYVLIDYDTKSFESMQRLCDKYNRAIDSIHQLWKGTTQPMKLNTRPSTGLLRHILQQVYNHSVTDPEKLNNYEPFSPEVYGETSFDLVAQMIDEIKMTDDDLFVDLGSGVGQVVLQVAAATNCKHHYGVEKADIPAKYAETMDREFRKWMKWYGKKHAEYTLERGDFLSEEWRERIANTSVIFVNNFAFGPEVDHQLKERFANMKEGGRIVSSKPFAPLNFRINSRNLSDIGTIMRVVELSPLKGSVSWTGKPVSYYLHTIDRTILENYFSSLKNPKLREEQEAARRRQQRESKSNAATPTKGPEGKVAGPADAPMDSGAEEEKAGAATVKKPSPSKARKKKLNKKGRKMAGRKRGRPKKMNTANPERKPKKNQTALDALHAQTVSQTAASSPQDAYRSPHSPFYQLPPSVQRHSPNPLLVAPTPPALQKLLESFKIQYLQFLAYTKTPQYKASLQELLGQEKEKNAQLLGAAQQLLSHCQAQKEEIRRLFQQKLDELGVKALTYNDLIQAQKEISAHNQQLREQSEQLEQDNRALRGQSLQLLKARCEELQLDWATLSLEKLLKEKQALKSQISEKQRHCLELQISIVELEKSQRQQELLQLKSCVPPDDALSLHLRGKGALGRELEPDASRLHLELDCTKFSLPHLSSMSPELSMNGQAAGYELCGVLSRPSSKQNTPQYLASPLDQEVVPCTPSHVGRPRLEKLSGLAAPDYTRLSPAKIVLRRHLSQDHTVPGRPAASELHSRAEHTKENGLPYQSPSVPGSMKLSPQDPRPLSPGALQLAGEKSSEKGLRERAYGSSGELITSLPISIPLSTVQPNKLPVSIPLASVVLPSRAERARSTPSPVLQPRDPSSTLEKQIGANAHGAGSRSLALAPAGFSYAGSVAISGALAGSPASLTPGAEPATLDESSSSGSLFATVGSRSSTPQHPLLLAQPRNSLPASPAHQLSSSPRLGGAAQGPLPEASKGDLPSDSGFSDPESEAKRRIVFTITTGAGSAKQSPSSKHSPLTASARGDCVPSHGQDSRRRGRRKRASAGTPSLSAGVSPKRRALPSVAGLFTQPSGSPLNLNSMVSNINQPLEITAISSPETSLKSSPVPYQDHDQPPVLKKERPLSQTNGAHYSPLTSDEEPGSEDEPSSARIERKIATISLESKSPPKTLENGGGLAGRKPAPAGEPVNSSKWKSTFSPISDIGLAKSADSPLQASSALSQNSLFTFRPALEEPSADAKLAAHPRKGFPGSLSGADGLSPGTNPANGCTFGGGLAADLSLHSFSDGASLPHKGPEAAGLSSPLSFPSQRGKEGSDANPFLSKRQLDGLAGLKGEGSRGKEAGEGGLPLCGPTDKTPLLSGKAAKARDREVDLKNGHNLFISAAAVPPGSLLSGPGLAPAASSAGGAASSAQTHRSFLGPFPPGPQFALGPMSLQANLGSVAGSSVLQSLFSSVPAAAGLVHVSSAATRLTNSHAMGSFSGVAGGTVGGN

- IC50 [1]: 1060 nM
- IC50 (MV4-11): 30500 nM
SMILES: Cc1cc(N)c2cc(Nc3cc(Nc4ccc5nc(C)cc(N)c5c4)ncn3)ccc2n1
- IC50 (Kasumi 1): 45800 nM

SMILES: CCn1cc(C(=O)O)c(=O)c2cc(F)c(N3CCNCC3)cc21 [NORFLOXACIN]
- MIC (Staphylococcus aureus [2]): > 16 µg/mL
- MIC (Staphylococcus aureus [3]): 0.125 to 16 µg/mL (≈ 0.391 to 50.1 µM)
- MIC (Staphylococcus aureus [4]): 0.125 to 16 µg/mL (≈ 0.391 to 50.1 µM)
- MIC (Staphylococcus aureus [5]): 0.125 to 16 µg/mL (≈ 0.391 to 50.1 µM)

SMILES: Clc1ccc2c(NCCCNCCNc3ccnc4cc(Cl)ccc34)ccnc2c1
- IC50 (Plasmodium falciparum [6]): 1.2 to 89 nM
- IC50 (Plasmodium falciparum [7]): 1.2 to 89 nM

SMILES: CCC1C[C@@H]2CC[C@H]1CC2C(O)c1ccnc2c(NC(=O)CCCCC(=O)Nc3cccc4c(C(O)C5C[C@@H]6CC[C@H]5C(CC)C6)ccnc34)cccc12 (stereo not given in full)
- IC50 (Plasmodium falciparum [8]): 20 nM
- IC50 (Plasmodium falciparum [9]): 20 nM
- IC50 (Plasmodium falciparum [10]): 50 nM

SMILES: CCC(C)[C@H](Nc1ccnc2cc(Cl)ccc12)C(=O)NCCNc1ccnc2cc(Cl)ccc12 (stereo not given in full)
- IC50 (Plasmodium falciparum [9]): 26 nM
- IC50 (Plasmodium falciparum [11]): 24 nM

- IC50 (HL-60): 540 nM
SMILES: CN1CCN(c2cc3c(cc2F)c(=O)c(-c2nn4c(-c5cn(C6CC6)c6cc(N7CCNCC7)c(F)cc6c5=O)nnc4s2)cn3C2CC2)CC1

SMILES: CN(CCCNc1ccnc2cc(Cl)ccc12)CCCNc1ccnc2cc(Cl)ccc12
- IC50 (Plasmodium falciparum [6]): 1.2 to 89 nM
- IC50 (Plasmodium falciparum [7]): 1.2 to 89 nM

- MIC (Enterococcus): 0.25 to 2 µg/mL (≈ 0.323 to 2.58 µM)
- MIC (Escherichia coli [12]): 0.25 to 2 µg/mL (≈ 0.323 to 2.58 µM)
- MIC (Proteus): 0.25 to 2 µg/mL (≈ 0.323 to 2.58 µM)
- MIC (Staphylococcus aureus [13]): 0.25 to 2 µg/mL (≈ 0.323 to 2.58 µM)
- MIC (Shigella): 0.25 to 2 µg/mL (≈ 0.323 to 2.58 µM)
- MIC (Klebsiella pneumoniae): 0.25 to 2 µg/mL (≈ 0.323 to 2.58 µM)
SMILES: O=C(O)c1cn(C2CC2)c2cc(N3CCN(c4nc(Cl)nc(N5CCN(c6cc7c(cc6F)c(=O)c(C(=O)O)cn7C6CC6)CC5)n4)CC3)c(F)cc2c1=O

- GI50 (MDA-MB-468): 7350 nM
- GI50 (MCF7): 14800 nM
SMILES: Clc1ccc2c(NCCNc3ccnc4cc(Cl)ccc34)ccnc2c1

- MIC (Enterococcus): 0.25 to 2 µg/mL (≈ 0.274 to 2.19 µM)
- MIC (Escherichia coli [12]): 0.25 to 2 µg/mL (≈ 0.274 to 2.19 µM)
- MIC (Proteus): 0.25 to 2 µg/mL (≈ 0.274 to 2.19 µM)
- MIC (Staphylococcus aureus [13]): 0.25 to 2 µg/mL (≈ 0.274 to 2.19 µM)
- MIC (Shigella): 0.25 to 2 µg/mL (≈ 0.274 to 2.19 µM)
- MIC (Klebsiella pneumoniae): 0.25 to 2 µg/mL (≈ 0.274 to 2.19 µM)
SMILES: O=C(O)c1cn(C2CC2)c2cc(N3CCN(c4nc(N5CCN(c6cc7c(cc6F)c(=O)c(C(=O)O)cn7C6CC6)CC5)c(F)c(S(=O)(=O)c5ccccc5)c4F)CC3)c(F)cc2c1=O

- IC50 [1]: 1080 nM
SMILES: Cc1cc(N)c2cc(Nc3ccnc(Nc4ccc5nc(C)cc(N)c5c4)n3)ccc2n1

- MIC (Staphylococcus aureus [2]): > 16 µg/mL
- MIC (Staphylococcus aureus [3]): 0.125 to 16 µg/mL (≈ 0.412 to 52.7 µM)
- MIC (Staphylococcus aureus [4]): 0.125 to 16 µg/mL (≈ 0.412 to 52.7 µM)
- MIC (Staphylococcus aureus [5]): 0.125 to 16 µg/mL (≈ 0.412 to 52.7 µM)
SMILES: CCn1cc(C(=O)O)c(=O)c2cnc(N3CCNCC3)nc21 [PIPEMIDIC ACID]

- IC50 (HL-60): 120 nM
SMILES: C[C@H]1COc2c(N3CCN(C)CC3)c(F)cc3c(=O)c(-c4nn5c(-c6cn(C7CC7)c7cc(N8CCNCC8)c(F)cc7c6=O)nnc5s4)cn1c23

SMILES: c1ccc2c(c1)nc(NCCCN1CCN(CCCNc3nc4ccccc4c4sccc34)CC1)c1ccsc12
- ED50 (Plasmodium vinckei): 30 mg/kg

SMILES: Clc1ccc2c(NCCCOCCOCCOCCCNc3ccnc4cc(Cl)ccc34)ccnc2c1
- IC50 (Plasmodium falciparum [6]): 1.2 to 89 nM
- IC50 (Plasmodium falciparum [7]): 1.2 to 89 nM

- IC50 [1]: 4350 nM
SMILES: Cc1cc(Nc2ccc3nc(C)cc(O)c3c2)nc(Nc2ccc3nc(C)cc(O)c3c2)n1

- IC50 [1]: 21700 nM
SMILES: COc1cc(C)nc2ccc(Nc3cc(C)nc(Nc4ccc5nc(C)cc(OC)c5c4)n3)cc12

SMILES: FC(F)(F)c1ccc2c(N[C@@H]3CCCC[C@H]3Nc3ccnc4cc(C(F)(F)F)ccc34)ccnc2c1
- ED50 (Plasmodium berghei): 5.9 mg/kg

SMILES: Clc1ccc2c(NCCOCCOCCNc3ccnc4cc(Cl)ccc34)ccnc2c1
- IC50 (Plasmodium falciparum [6]): 1.2 to 89 nM
- IC50 (Plasmodium falciparum [7]): 1.2 to 89 nM

SMILES: Clc1ccc2c(NCCOCCNc3ccnc4cc(Cl)ccc34)ccnc2c1
- IC50 (Plasmodium falciparum [6]): 1.2 to 89 nM
- IC50 (Plasmodium falciparum [7]): 1.2 to 89 nM

SMILES: Clc1ccc2c(NCCCCCCNCCCCCCNc3ccnc4cc(Cl)ccc34)ccnc2c1
- IC50 (Plasmodium falciparum [6]): 1.2 to 89 nM
- IC50 (Plasmodium falciparum [7]): 1.2 to 89 nM

SMILES: CCN(CC)CCCC(C)Nc1cc(CCCCCCCCCCCCc2cc(NC(C)CCCN(CC)CC)c3ccccc3n2)nc2ccccc12 (stereo not given)
- Ratio IC50 (Plasmodium falciparum [14]): 31.7

- IC50 [1]: 1500 nM
SMILES: Cc1cc(Nc2ccc3nc(C)cc(N)c3c2)nc(Nc2ccc3nc(C)cc(N)c3c2)n1

SMILES: Clc1ccc2c(NCCCOCCCCOCCCNc3ccnc4cc(Cl)ccc34)ccnc2c1
- IC50 (Plasmodium falciparum [6]): 1.2 to 89 nM
- IC50 (Plasmodium falciparum [7]): 1.2 to 89 nM

- MIC (Staphylococcus aureus [2]): > 16 µg/mL
- MIC (Staphylococcus aureus [3]): 0.125 to 16 µg/mL (≈ 0.377 to 48.3 µM)
- MIC (Staphylococcus aureus [4]): 0.125 to 16 µg/mL (≈ 0.377 to 48.3 µM)
- MIC (Staphylococcus aureus [5]): 0.125 to 16 µg/mL (≈ 0.377 to 48.3 µM)
SMILES: O=C(O)c1cn(C2CC2)c2cc(N3CCNCC3)c(F)cc2c1=O [CIPROFLOXACIN]
- zone of inhibition at 50 µg/disc (Escherichia coli [15]): 36 mm
- zone of inhibition at 100 µg/disc (Staphylococcus aureus [16]): 38 mm

SMILES: Clc1ccc2c(NCCCN3CCN(CCCNCc4ccnc5ccccc45)CC3)ccnc2c1
- IC50 (Plasmodium falciparum [17]): 20.1 nM
- CC50 [18]: 16400 nM
- selectivity ratio [19]: 816

SMILES: Clc1ccc2c(N[C@@H]3CCCC[C@H]3Nc3ccnc4cc(Cl)ccc34)ccnc2c1 (relative stereo)
- IC50 (Plasmodium falciparum [6]): 1.4 nM
- IC50 (Plasmodium falciparum [7]): 1 nM
- ED50 (Plasmodium berghei): 3 mg/kg
